Measurements taken from patent publication US10945932B2, “Prebiotic oral care compositions containing carboxylic acids” (COLGATE-PALMOLIVE COMPANY, priority 2013, dated 2021).
Where two headings read alike, the source gives them in different places.

Tests used:
Actinomyces naeslundii = assay: Biofilm growth assay in BHI, crystal violet; type: cell-based; conditions: A naeslundii
Protocol: (§1) Late exponential growth phase liquid cultures were prepared by transferring the respective bacterium from blood agar plates to BHI and overnight incubation at 37° C. in an anaerobic atmosphere for A. viscosus, V. parvula, F. nucleatum, P. gingivalis, P. intermedia, T. forsythia, A. naeslundii, and C. sputigena, and in a 5% CO2 environment for S. salivarius, S. sanguinis, S. mitis, A. actinomycetemcomitans, S. mutans, and S. gordonii. […] Additionally, for each bacterium tested, a background control, to correct for background staining, was added. This background control contained the bacterium tested and 0.03 weight % chlorhexidine, as an antiseptic. Plates were incubated as previously described. After 48 hrs the supernatant was removed from the wells of the plates. The wells were washed twice with 1×100 μL/PBS (phosphate buffered saline), fixed for 20 minutes with 96% vol. ethanol (96% vol. solution in water) and the biofilm retained at the bottom of the wells was stained with 1 weight % crystal violet (1 weight % solution in water). […] Quantification of the stained biofilm was performed by measuring the absorbance at 630 nm using a Multiskan Ascent microplate reader (Thermo Scientific).

[1] = tested on: Aggregatibacter actinomycetemcomitans; assay: Biofilm growth assay in BHI, crystal violet; type: cell-based; conditions: A actinomycetemcomitans
Protocol: as §1

Capnocytophaga sputigena = assay: Biofilm growth assay in BHI, crystal violet; type: cell-based; conditions: C sputigena
Protocol: as §1

Prevotella intermedia [2] = assay: Biofilm growth assay in BHI, crystal violet; type: cell-based; conditions: P intermedia
Protocol: as §1

Streptococcus gordonii [3] = assay: Biofilm growth assay in BHI, crystal violet; type: cell-based; conditions: S gordonii
Protocol: as §1

Streptococcus mitis [4] = assay: Biofilm growth assay in BHI, crystal violet; type: cell-based; conditions: S mitis
Protocol: as §1

Streptococcus mutans = assay: Biofilm growth assay in BHI, crystal violet; type: cell-based; conditions: S mutans
Protocol: as §1

Streptococcus salivarius = assay: Biofilm growth assay in BHI, crystal violet; type: cell-based; conditions: S salivarius
Protocol: as §1

Streptococcus sanguinis = assay: Biofilm growth assay in BHI, crystal violet; type: cell-based; conditions: S sanguinis
Protocol: as §1

Tannerella forsythia = assay: Biofilm growth assay in BHI, crystal violet; type: cell-based; conditions: T forsythia
Protocol: as §1

Veillonella parvula = assay: Biofilm growth assay in BHI, crystal violet; type: cell-based; conditions: V parvula
Protocol: as §1

[5] = tested on: beneficial oral bacteria and pathogenic oral bacteria; assay: Metabolic activity, prebiotic effect over the whole panel; type: cell-based; conditions: 48 hrs; threshold value of 2
Protocol: The extent of metabolic activity of the tested bacteria in the presence of the above-mentioned acids after 24 hours and 48 hours was investigated through a high throughput phenotype microarray system (PM) for microbial cells (Biolog Inc.). Each PM can contain up to 95 different biochemical compounds (e.g. organic acids) that may act as substrates for bacteria as well as one negative control, not containing the substrates. Microarray plates were used in which the different wells of each plate were pre-loaded (by the manufacturer, Biolog Inc.) with different organic acids to be tested. Each bacterial species was tested using a separate microarray plate. Thus, a single bacterial species was tested with a variety of organic acids on each particular plate. The microarrays are based on redox technology, using cell respiration as a universal reporter. […] The observation of this color change indicates which of the substrates improve the metabolic activity and health of the cells.
Each bacterial species was collected from blood agar plates (incubated for 48 hours anaerobically at 37° C.) and transferred to an IF-0 Base inoculation fluid (Biolog Inc.), which is a nutritionally poor medium. […] A 1:5 dilution of this suspension was prepared by mixing 3 mL of the 42% transmittance cell suspension with 15 mL of an inoculation fluid (which inoculation fluid was formed by mixing 11.6 mL sterile water, 62.5 mL IF-0 base inoculation fluid and 0.9 mL of the tetrazolium dye “Biolog Redox Dye mix D”), resulting in a final cell density which was equal to 85% transmittance using a BioRad SmartSpec 3000 Photometer. For each of the acids tested, the microarray plate (obtained from the supplier (Biolog Inc.) with acid already present in the relevant wells in powder form) was directly inoculated with 100 μL/well of this 85% transmittance cell suspension.
All plates were incubated in an anaerobic atmosphere at 37° C. Color changes were measured spectrophotometrically at 492 nm (Thermo Scientific Multiskan Ascent) at 24 hrs and 48 hrs using the same plate at both time points.
The controls were also carried out three times, as above.

[6] = tested on: Aggregatibacter actinomycetemcomitans; conditions: A actinomycetemcomitans, BHI
Protocol: (§2) Late exponential growth phase liquid cultures were prepared by transferring the respective bacterium from blood agar plates to BHI and overnight incubation at 37° C. in an anaerobic atmosphere for A. viscosus, V. parvula, F. nucleatum, P. gingivalis, P. intermedia, T forsythia, A. naeslundii, and C. sputigena, and in a 5% CO2 environment for S. salivarius, S. sanguinis, S. mitis, A. actinomycetemcomitans, S. mutans, S. sobrinus and S. gordonii. Overnight cultures were transferred to BHI and adjusted to a concentration of 1×10^7 CFU/ml (colony forming units per ml) by measuring the optical density at 600 nm (OD600) (BioRad SmartSpec 3000). For each strain, 200 μl of the bacterial suspension was added to a 96-well plate containing 20 μl of the respective carboxylic acids. Final concentrations of the carboxylic acids were set to 5, 10, 20 and 25 μmol/ml. […] Plates were incubated as previously described.
(§3) For each combination of bacterium/carboxylic acid, and for each of their respective controls (i.e. the particular bacterium in the nutritionally rich medium with no carboxylic acid), the optical density was measured at 630 nm (OD630) at 0 h, 24 h and 48 h (Thermo Scientific Multiskan Ascent). Additionally, the OD630 for combinations of bacterium/carboxylic acid grown in a 5% CO2 environment were also measured every hour between 0 h and 9 h.
(§4) The experiment was carried out on three different days (thus providing 3 biological replicas) and on each day the experiment was carried out in quadruple (thus providing 4 technical replicas) for each combination of bacterium with carboxylic acid and for each control. For each day and for each combination, the average (mean) of the values obtained (as detailed above) for the four technical replicas was calculated to provide a single value for each combination on each day.

Prevotella intermedia [7] = conditions: P intermedia, BHI
Protocol: as §2, §3, §4

Streptococcus gordonii [8] = conditions: S gordonii, BHI
Protocol: as §2, §3, §4

Streptococcus mitis [9] = conditions: S mitis, BHI
Protocol: as §2, §3, §4

For `N[C@@H](CC(=O)O)C(=O)O` [L-aspartic acid], the “biofilm growth, OD at 630 nm (crystal violet) at 48 hrs divided by OD of control (control = 1)” value (Actinomyces naeslundii; 5 μmol/ml) was 1.1735, the “biofilm growth, OD at 630 nm (crystal violet) at 48 hrs divided by OD of control (control = 1)” value (Actinomyces naeslundii; 10 μmol/ml) was 1.2585 and the “biofilm growth, OD at 630 nm (crystal violet) at 48 hrs divided by OD of control (control = 1)” value (Actinomyces naeslundii; 20 μmol/ml) was 1.2309. The “biofilm growth, OD at 630 nm (crystal violet) at 48 hrs divided by OD of control (control = 1)” value (Actinomyces naeslundii; 25 μmol/ml) was 1.1175, the “biofilm growth, OD at 630 nm (crystal violet) at 48 hrs divided by OD of control (control = 1)” value ([1]; 5 μmol/ml) was 0.6182 and the “biofilm growth, OD at 630 nm (crystal violet) at 48 hrs divided by OD of control (control = 1)” value ([1]; 10 μmol/ml) was 0.5044. For the same compound, the “biofilm growth, OD at 630 nm (crystal violet) at 48 hrs divided by OD of control (control = 1)” value ([1]; 20 μmol/ml) was 0.4857, the “biofilm growth, OD at 630 nm (crystal violet) at 48 hrs divided by OD of control (control = 1)” value ([1]; 25 μmol/ml) was 0.5553 and the “biofilm growth, OD at 630 nm (crystal violet) at 48 hrs divided by OD of control (control = 1)” value (Capnocytophaga sputigena; 5 μmol/ml) was 0.9508. For the same compound, the “biofilm growth, OD at 630 nm (crystal violet) at 48 hrs divided by OD of control (control = 1)” value (Capnocytophaga sputigena; 10 μmol/ml) was 0.9546, the “biofilm growth, OD at 630 nm (crystal violet) at 48 hrs divided by OD of control (control = 1)” value (Capnocytophaga sputigena; 20 μmol/ml) was 0.9747 and the “biofilm growth, OD at 630 nm (crystal violet) at 48 hrs divided by OD of control (control = 1)” value (Capnocytophaga sputigena; 25 μmol/ml) was 0.9785. For the same compound, the “biofilm growth, OD at 630 nm (crystal violet) at 48 hrs divided by OD of control (control = 1)” value (Prevotella intermedia [2]; 5 μmol/ml) was 1.4322, the “biofilm growth, OD at 630 nm (crystal violet) at 48 hrs divided by OD of control (control = 1)” value (Prevotella intermedia [2]; 10 μmol/ml) was 1.6018 and the “biofilm growth, OD at 630 nm (crystal violet) at 48 hrs divided by OD of control (control = 1)” value (Prevotella intermedia [2]; 20 μmol/ml) was 1.6295. The “biofilm growth, OD at 630 nm (crystal violet) at 48 hrs divided by OD of control (control = 1)” value (Prevotella intermedia [2]; 25 μmol/ml) was 1.5442, the “biofilm growth, OD at 630 nm (crystal violet) at 48 hrs divided by OD of control (control = 1)” value (Streptococcus gordonii [3]; 5 μmol/ml) was 1.3455 and the “biofilm growth, OD at 630 nm (crystal violet) at 48 hrs divided by OD of control (control = 1)” value (Streptococcus gordonii [3]; 10 μmol/ml) was 1.6702. The “biofilm growth, OD at 630 nm (crystal violet) at 48 hrs divided by OD of control (control = 1)” value (Streptococcus gordonii [3]; 20 μmol/ml) was 2.1065, the “biofilm growth, OD at 630 nm (crystal violet) at 48 hrs divided by OD of control (control = 1)” value (Streptococcus gordonii [3]; 25 μmol/ml) was 2.2320 and the “biofilm growth, OD at 630 nm (crystal violet) at 48 hrs divided by OD of control (control = 1)” value (Streptococcus mitis [4]; 5 μmol/ml) was 1.5188. For the same compound, the “biofilm growth, OD at 630 nm (crystal violet) at 48 hrs divided by OD of control (control = 1)” value (Streptococcus mitis [4]; 10 μmol/ml) was 1.6156, the “biofilm growth, OD at 630 nm (crystal violet) at 48 hrs divided by OD of control (control = 1)” value (Streptococcus mitis [4]; 20 μmol/ml) was 1.5402 and the “biofilm growth, OD at 630 nm (crystal violet) at 48 hrs divided by OD of control (control = 1)” value (Streptococcus mitis [4]; 25 μmol/ml) was 1.7351. The “biofilm growth, OD at 630 nm (crystal violet) at 48 hrs divided by OD of control (control = 1)” value (Streptococcus mutans; 5 μmol/ml) was 0.0000, the “biofilm growth, OD at 630 nm (crystal violet) at 48 hrs divided by OD of control (control = 1)” value (Streptococcus mutans; 10 μmol/ml) was 0.0000 and the “biofilm growth, OD at 630 nm (crystal violet) at 48 hrs divided by OD of control (control = 1)” value (Streptococcus mutans; 20 μmol/ml) was 0.1923. The “biofilm growth, OD at 630 nm (crystal violet) at 48 hrs divided by OD of control (control = 1)” value (Streptococcus mutans; 25 μmol/ml) was 0.0000, the “biofilm growth, OD at 630 nm (crystal violet) at 48 hrs divided by OD of control (control = 1)” value (Streptococcus salivarius; 5 μmol/ml) was 1.4152 and the “biofilm growth, OD at 630 nm (crystal violet) at 48 hrs divided by OD of control (control = 1)” value (Streptococcus salivarius; 10 μmol/ml) was 1.9207. The “biofilm growth, OD at 630 nm (crystal violet) at 48 hrs divided by OD of control (control = 1)” value (Streptococcus salivarius; 20 μmol/ml) was 2.4799, the “biofilm growth, OD at 630 nm (crystal violet) at 48 hrs divided by OD of control (control = 1)” value (Streptococcus salivarius; 25 μmol/ml) was 3.0682 and the “biofilm growth, OD at 630 nm (crystal violet) at 48 hrs divided by OD of control (control = 1)” value (Streptococcus sanguinis; 5 μmol/ml) was 1.5035. The “biofilm growth, OD at 630 nm (crystal violet) at 48 hrs divided by OD of control (control = 1)” value (Streptococcus sanguinis; 10 μmol/ml) was 1.7477, the “biofilm growth, OD at 630 nm (crystal violet) at 48 hrs divided by OD of control (control = 1)” value (Streptococcus sanguinis; 20 μmol/ml) was 2.0414 and the “biofilm growth, OD at 630 nm (crystal violet) at 48 hrs divided by OD of control (control = 1)” value (Streptococcus sanguinis; 25 μmol/ml) was 2.0560. The “biofilm growth, OD at 630 nm (crystal violet) at 48 hrs divided by OD of control (control = 1)” value (Tannerella forsythia; 5 μmol/ml) was 1.0369, the “biofilm growth, OD at 630 nm (crystal violet) at 48 hrs divided by OD of control (control = 1)” value (Tannerella forsythia; 10 μmol/ml) was 0.9131 and the “biofilm growth, OD at 630 nm (crystal violet) at 48 hrs divided by OD of control (control = 1)” value (Tannerella forsythia; 20 μmol/ml) was 1.0055. The “biofilm growth, OD at 630 nm (crystal violet) at 48 hrs divided by OD of control (control = 1)” value (Tannerella forsythia; 25 μmol/ml) was 0.9659, the “biofilm growth, OD at 630 nm (crystal violet) at 48 hrs divided by OD of control (control = 1)” value (Veillonella parvula; 5 μmol/ml) was 1.1641 and the “biofilm growth, OD at 630 nm (crystal violet) at 48 hrs divided by OD of control (control = 1)” value (Veillonella parvula; 10 μmol/ml) was 1.2799. For the same compound, the “biofilm growth, OD at 630 nm (crystal violet) at 48 hrs divided by OD of control (control = 1)” value (Veillonella parvula; 20 μmol/ml) was 1.5344, the “biofilm growth, OD at 630 nm (crystal violet) at 48 hrs divided by OD of control (control = 1)” value (Veillonella parvula; 25 μmol/ml) was 1.6960 and the “prebiotic effect (metabolic activity)” value [5] was “exhibited prebiotic effects”. For the same compound, the “extent of growth, maximal OD630 over 48 hr divided by maximal OD of control (control = 1)” value ([6]; 5 μmol/ml) was 0.7612, the “extent of growth, maximal OD630 over 48 hr divided by maximal OD of control (control = 1)” value ([6]; 10 μmol/ml) was 0.7493 and the “extent of growth, maximal OD630 over 48 hr divided by maximal OD of control (control = 1)” value ([6]; 20 μmol/ml) was 0.6806. For the same compound, the “extent of growth, maximal OD630 over 48 hr divided by maximal OD of control (control = 1)” value ([6]; 25 μmol/ml) was 0.6885, the “extent of growth, maximal OD630 over 48 hr divided by maximal OD of control (control = 1)” value (Prevotella intermedia [7]; 5 μmol/ml) was 1.0755 and the “extent of growth, maximal OD630 over 48 hr divided by maximal OD of control (control = 1)” value (Prevotella intermedia [7]; 10 μmol/ml) was 1.1717. For the same compound, the “extent of growth, maximal OD630 over 48 hr divided by maximal OD of control (control = 1)” value (Prevotella intermedia [7]; 20 μmol/ml) was 1.1438, the “extent of growth, maximal OD630 over 48 hr divided by maximal OD of control (control = 1)” value (Prevotella intermedia [7]; 25 μmol/ml) was 1.1396 and the “extent of growth, maximal OD630 over 48 hr divided by maximal OD of control (control = 1)” value (Streptococcus gordonii [8]; 5 μmol/ml) was 0.9448. For the same compound, the “extent of growth, maximal OD630 over 48 hr divided by maximal OD of control (control = 1)” value (Streptococcus gordonii [8]; 10 μmol/ml) was 0.9400, the “extent of growth, maximal OD630 over 48 hr divided by maximal OD of control (control = 1)” value (Streptococcus gordonii [8]; 20 μmol/ml) was 0.9583 and the “extent of growth, maximal OD630 over 48 hr divided by maximal OD of control (control = 1)” value (Streptococcus gordonii [8]; 25 μmol/ml) was 0.9466. For the same compound, the “extent of growth, maximal OD630 over 48 hr divided by maximal OD of control (control = 1)” value (Streptococcus mitis [9]; 5 μmol/ml) was 1.2333, the “extent of growth, maximal OD630 over 48 hr divided by maximal OD of control (control = 1)” value (Streptococcus mitis [9]; 10 μmol/ml) was 1.2959 and the “extent of growth, maximal OD630 over 48 hr divided by maximal OD of control (control = 1)” value (Streptococcus mitis [9]; 20 μmol/ml) was 1.2536. The “extent of growth, maximal OD630 over 48 hr divided by maximal OD of control (control = 1)” value (Streptococcus mitis [9]; 25 μmol/ml) was 1.1257.
